biological target: T1, human HPK1 protein (Homo sapiens, UniProt Q92918); assay: Human HPK1 protein TR-FRET assay; type: biochemical; conditions: 1 mM ATP, Table 19
T1 construct: recombinant human HPK1 protein (a.a. 1-346) was expressed in Sf9 insect cells; GST (N); purchased Signalchem M23-11G; host or cells: Sf9 insect cells (baculovirus)
T1 sequence (Q92918 1-346): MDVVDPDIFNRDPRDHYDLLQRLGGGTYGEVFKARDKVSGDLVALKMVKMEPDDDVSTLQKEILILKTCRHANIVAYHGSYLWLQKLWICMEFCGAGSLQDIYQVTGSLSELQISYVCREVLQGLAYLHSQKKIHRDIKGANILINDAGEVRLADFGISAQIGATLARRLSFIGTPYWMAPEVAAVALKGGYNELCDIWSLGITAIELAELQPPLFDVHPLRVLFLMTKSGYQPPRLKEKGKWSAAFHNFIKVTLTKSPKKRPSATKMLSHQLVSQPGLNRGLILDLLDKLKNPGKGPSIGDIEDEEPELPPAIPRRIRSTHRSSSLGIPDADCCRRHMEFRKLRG
In short: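 GST-tagged HPK1 (a.a. 1-346, Sf9-expressed) at 10 nM phosphorylated 100 nM ULight CREBtide with 1 mM ATP in Tris pH 7.5, MgCl2, NP-40, DTT, 1% DMSO, 60 minutes at room temperature. Phospho-Ser133 detected by Eu-antibody TR-FRET (665/615 nm ratio); IC50 from 4-parameter fit against DMSO control.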

IC50 [nM]	Compound
< 500	CCN1CCN(Cc2ccc(NC(=O)N3CC(=O)c4ccc(Oc5ccnc6[nH]c(C)cc56)cc4C3)cc2C(F)(F)F)CC1 [compound 17, N-(4-((4-ethylpiperazin-1-yl)methyl)-3-(trifluoromethyl)phenyl)-7-((2-methyl-1H-pyrrolo[2,3-b]pyridin-4-yl)oxy)-4-oxo-3,4-dihydroisoquinoline-2(1H)-carboxamide]
< 500	C[C@H]1c2cc(Oc3ccnc4[nH]ccc34)ccc2CCN1C(=O)Nc1ccc(CN2CCN(CCO)CC2)c(C(F)F)c1 [V-18]
< 500	CCN1CCN(Cc2ccc(NC(=O)N3Cc4cc(Oc5ncnc6[nH]c(C)cc56)cnc4C(C)C3)cc2C(F)(F)F)CC1 (stereo not shown) [VII-18]
500 to 5000	CCN1CCN(Cc2ccc(NC(=O)C3CCc4ccc(Oc5cc(NC)ncn5)cc4C3)cc2C(F)(F)F)CC1 (stereo not shown) [compound 12, N-(4-((4-ethylpiperazin-1-yl)methyl)-3-(trifluoromethyl)phenyl)-7-((6-(methylamino)pyrimidin-4-yl)oxy)-1,2,3,4-tetrahydronaphthalene-2-carboxamide]
< 500	CCN1CCN(Cc2ccc(NC(=O)N3CCc4ccc(Oc5ccnc6[nH]ccc56)c(C)c4C3)cc2C(F)(F)F)CC1 [III-2]
< 500	CCN1CCN(Cc2ccc(NC(=O)N3CCc4ccc(Oc5ccnc6[nH]c(C7(O)COC7)cc56)cc4[C@@H]3C)cc2C(F)(F)F)CC1 [V-23]
500 to 5000	Cc1cc2c(Oc3ccc4c(c3)[C@H](C)N(C(=O)Nc3cnc(OC5CCCN(C)C5)c(C(F)(F)F)c3)CC4)ccnc2[nH]1 (mixture of isomers) [VI-6]
500 to 5000	C[C@H]1c2cc(Oc3ccnc4[nH]ccc34)ccc2CCN1C(=O)Nc1ccc(OC2CCN(C)CC2)c(C(F)F)c1 [V-15]
< 500	Cc1cc2c(Oc3cnc4c(c3)CN(C(=O)Nc3cnc(OC5CCN(C)CC5)c(C(F)(F)F)c3)CC4C)ncnc2[nH]1 (stereo not shown) [VII-14]
500 to 5000	CCN1CCN(Cc2ccc(NC(=O)N3CC4CCC3c3cc(Oc5ccnc6[nH]ccc56)ccc34)cc2C(F)(F)F)CC1 (stereo not shown) [compound 14, 7-((1H-pyrrolo[2,3-b]pyridin-4-yl)oxy)-N-(4-((4-ethylpiperazin-1-yl)methyl)-3-(trifluoromethyl)phenyl)-1,2,3,4-tetrahydro-1,4-(epiminomethano)naphthalene-10-carboxamide]
< 500	CCN1CCN(Cc2ccc(NC(=O)N3CCc4ccc(Oc5ccnc6[nH]ccc56)cc4[C@@H]3C)cc2C(F)(F)F)CC1 [compound 6, (S)-7-((1H-Pyrrolo[2,3-b]pyridin-4-yl)oxy)-N-(4-((4-ethylpiperazin-1-yl)methyl)-3-(trifluoromethyl)phenyl)-1-methyl-3,4-dihydroisoquinoline-2(1H)-carboxamide]
< 500	Cc1cc2c(Oc3ccc4c(c3)[C@H](C)N(C(=O)Nc3ccc5c(N6CCN(C)CC6)cccc5c3)CC4)ccnc2[nH]1 [X-6]
500 to 5000	CCN1CCN(Cc2ccc(NC(=O)N3CCc4cc(F)c(Oc5ccnn6cccc56)cc4C3C)cc2C(F)(F)F)CC1 (stereo not shown) [IV-30]
< 500	Cc1cc2c(Oc3cnc4c(c3)CN(C(=O)Nc3cnc(OC5CCN(C)CC5)c(C(F)(F)F)c3)CC4C)ccnc2[nH]1 (single isomer, unassigned) [VII-8]
5000 to 10000	CCN1CCN(Cc2ccc(NC(=O)N3Cc4cc(Nc5ccnc(NC)c5)cnc4C(C)C3)cc2C(F)(F)F)CC1 (single isomer, unassigned) [IX-3]
< 500	CCN1CCN(Cc2ccc(NC(=O)N3CCc4cc(F)c(Oc5ccnc6[nH]ccc56)cc4C3)cc2C(F)(F)F)CC1 [compound 3, 7-((1H-Pyrrolo[2,3-b]pyridin-4-yl)oxy)-N-(4-((4-ethylpiperazin-1-yl)methyl)-3-(trifluoromethyl)phenyl)-6-fluoro-3,4-dihydroisoquinoline-2(1H)-carboxamide]
< 500	CCN1CCN(Cc2ccc(NC(=O)N3CCc4cc(F)c(Oc5ncnn6cccc56)cc4C3C)cc2C(F)(F)F)CC1 (stereo not shown) [IV-35]
< 500	CCN1CCN(Cc2ccc(NC(=O)C3CCc4ccc(Oc5ccnc6[nH]c(C)cc56)cc4N3)cc2C(F)(F)F)CC1 (stereo not shown) [compound 15, N-(4-((4-ethylpiperazin-1-yl)methyl)-3-(trifluoromethyl)phenyl)-7-((2-methyl-1H-pyrrolo[2,3-b]pyridin-4-yl)oxy)-1,2,3,4-tetrahydroquinoline-2-carboxamide]
< 500	CCN1CCN(Cc2ccc(NC(=O)N3CCc4ccc(Oc5ccnc(NC)c5)cc4C3)cc2C(F)(F)F)CC1 [II-13]
< 500	CCN1CCN(Cc2ccc(NC(=O)N3CCc4ccc(Oc5c(F)cnc6[nH]ccc56)cc4C3)cc2C(F)(F)F)CC1 [III-8]
500 to 5000	CCN1CCN(Cc2ccc(NC(=O)N3CCc4ccc(Oc5ccnc(C#N)c5)cc4[C@@H]3C)cc2C(F)(F)F)CC1 [V-11]

same assay, conditions: 1 mM ATP, Table 20

IC50 [nM]	Compound
< 500	CC[C@@H]1CN(C(=O)Nc2ccc(CN3CCN(C)CC3)c(C(F)(F)F)c2)Cc2cc(Oc3ccnc4[nH]c(CO)cc34)cnc21 [XIV-56]
< 500	CN1CCC(Oc2ncc(NC(=O)N3CCc4ccc(Oc5c(F)cnc6[nH]c(-c7cnn(C)c7)cc56)cc4C3)cc2C(F)(F)F)CC1 [XII-13]
< 500	CC[C@H]1CN(C(=O)Nc2ccc(CN3CCNCC3)c(C(F)(F)F)c2)Cc2cc(Oc3ccnn4cc(C(=O)NC)cc34)cnc21 [XIV-125]
< 500	CC[C@@H]1CN(C(=O)Nc2ccc(CN3CCN(CC)CC3)c(C(F)(F)F)c2)Cc2cc(Oc3ccnc4[nH]c(CO)cc34)cnc21 [XIV-28]
< 500	CC[C@@H]1CN(C(=O)Nc2ccc(CN3CCN(CC)CC3)c(C(F)(F)F)c2)Cc2cc(Oc3ncnc4[nH]c(C5CC5)cc34)cnc21 [XIV-37]
< 500	CCN1CCN(Cc2ccc(NC(=O)N3Cc4cc(Oc5ccnc6[nH]c(CO)cc56)cnc4[C@H](C)C3)cc2C(F)(F)F)CC1 [XIV-14]
500 to 5000	CCN1CCN(Cc2ccc(NC(=O)N3CCc4cnc(Nc5ccnc6[nH]ccc56)nc4C3)cc2C(F)(F)F)CC1 [XVIII-11]
< 500	C[C@H]1CN(C(=O)Nc2cnc(CN3CCN(C)CC3)c(C(F)(F)F)c2)Cc2cc(Oc3c(F)cnc4[nH]c(-c5cnn(C)c5)cc34)ccc21 [XII-11]
< 500	CC[C@H]1CN(C(=O)Nc2ccc(CN3CCN(CC)CC3)c(C(F)(F)F)c2)Cc2cc(Oc3ccnc4[nH]c(C5(O)CC5)cc34)cnc21 [XIV-79]
< 500	CC[C@H]1CN(C(=O)Nc2ccc(CN3CCN(C)CC3)c(C(F)(F)F)c2)Cc2cc(Oc3ccnc4[nH]c(C(=O)N5CC[C@H](O)C5)cc34)cnc21 [XIV-109]
< 500	CC[C@@H]1CN(C(=O)Nc2ccc(CN3CCN(C)CC3)c(C(F)F)c2)Cc2cc(Oc3ncnc4[nH]c(C5CC5)cc34)ccc21 [XV-1]
< 500	CCN1CCN(Cc2ccc(NC(=O)N3CCc4ccc(Oc5ccnc6[nH]c(CO)cc56)cc4[C@@H]3C)cc2C(F)(F)F)CC1 [XIII-2]
< 500	CC[C@@H]1CN(C(=O)Nc2ccc(CN3CCN(CCO)CC3)c(C(F)(F)F)c2)Cc2cc(Oc3ccnc4[nH]c(C5CC5)cc34)ccc21 [XV-26]
< 500	CCN1CCN(Cc2ccc(NC(=O)N3Cc4cc(Oc5ccnc6[nH]c(-c7cnn(C)c7)nc56)cnc4C(C)C3)cc2C(F)(F)F)CC1 (single isomer, unassigned) [XIV-30]
< 500	CC[C@@H]1CN(C(=O)Nc2cnc(OC3CCN(C)CC3)c(C(F)(F)F)c2)Cc2cc(Oc3ccnc4[nH]c(C5CC5)cc34)cnc21 [XIV-43]
< 500	C[C@@H]1Cc2ccc(Oc3ccnc4[nH]c(C(=O)N(C)C)cc34)cc2CN1C(=O)Nc1cnc(O[C@@H]2CCN(C)C[C@@H]2O)c(C(F)(F)F)c1 [XVI-6]
< 500	C[C@H]1c2cc(Oc3ccnc4[nH]c(CO)cc34)ccc2CCN1C(=O)Nc1ccc(CN2CCN(CCO)CC2)c(C(F)F)c1 [XIII-12]
< 500	CC[C@H]1CN(C(=O)Nc2ccc(CN3CCN(CCO)CC3)c(C(F)F)c2)Cc2cc(Oc3ccnc4[nH]c(C(N)=O)cc34)ccc21 [XV-41]
< 500	CC[C@@H]1CN(C)CC[C@H]1Oc1ncc(NC(=O)N2CCc3ccc(Oc4ccnc5[nH]c(C)cc45)cc3[C@@H]2C)cc1C(F)(F)F [XIII-1]
< 500	CCN1CCN(Cc2ccc(NC(=O)N3Cc4cc(Oc5ccnc6[nH]ccc56)ccc4C(C(F)(F)F)C3)cc2C(F)(F)F)CC1 (stereo not shown) [XVIII-15]
< 500	CCN1CCN(Cc2ccc(NC(=O)N3Cc4cc(Oc5ccnc6[nH]c(=O)[nH]c56)cnc4C(C)C3)cc2C(F)(F)F)CC1 (single isomer, unassigned) [XIV-12]
500 to 5000	CCN1CCN(Cc2ccc(NC(=O)N3CCc4ccc(-c5ccc6cc(NC)ncc6c5)cc4C3)cc2C(F)(F)F)CC1 [XI-1]
< 500	CN1CCN(Cc2ccc(NC(=O)N3CCc4ccc(Oc5c(F)cnc6[nH]c(-c7cnn(C)c7)cc56)cc4C3)cc2C(F)(F)F)CC1 [compound 19, 7-[[5-Fluoro-2-(1-methylpyrazol-4-yl)-1H-pyrrolo[2,3-b]pyridin-4-yl]oxy]-N-[4-[(4-methylpiperazin-1-yl)methyl]-3-(trifluoromethyl)phenyl]-3,4-dihydro-1H-isoquinoline-2-carboxamide]
< 500	C[C@H]1c2cc(Oc3ccnc4[nH]c(C5(O)COC5)cc34)ccc2CCN1C(=O)Nc1ccc(CN2CCN(CCO)CC2)c(C(F)(F)F)c1 [XIII-6]
< 500	CC[C@H]1CN(C(=O)Nc2ccc(CN3CCN(C)CC3)c(C(F)(F)F)c2)Cc2cc(Oc3ccnc4[nH]c(C5(O)COC5)cc34)cnc21 [XIV-51]
